Test results reported in patent US20230009608A1, “GRK2 INHIBITORS AND USES THEREOF” (Cygnal Therapeutics, Inc., priority 2020, published 2023).

How the values were obtained:
[1] = target: T1, GRK2 (Homo sapiens, UniProt P25098); assay: GRK2 Inhibition Assay (TR-FRET, Example 7); type: biochemical; details: 1 nM GRK2, 7 μM ATP, TR-FRET; read-out: GRK2 IC50 (nM) (Example 7)
T1 construct: purchased SignalChem A14-10G
T1 sequence (P25098 1-689): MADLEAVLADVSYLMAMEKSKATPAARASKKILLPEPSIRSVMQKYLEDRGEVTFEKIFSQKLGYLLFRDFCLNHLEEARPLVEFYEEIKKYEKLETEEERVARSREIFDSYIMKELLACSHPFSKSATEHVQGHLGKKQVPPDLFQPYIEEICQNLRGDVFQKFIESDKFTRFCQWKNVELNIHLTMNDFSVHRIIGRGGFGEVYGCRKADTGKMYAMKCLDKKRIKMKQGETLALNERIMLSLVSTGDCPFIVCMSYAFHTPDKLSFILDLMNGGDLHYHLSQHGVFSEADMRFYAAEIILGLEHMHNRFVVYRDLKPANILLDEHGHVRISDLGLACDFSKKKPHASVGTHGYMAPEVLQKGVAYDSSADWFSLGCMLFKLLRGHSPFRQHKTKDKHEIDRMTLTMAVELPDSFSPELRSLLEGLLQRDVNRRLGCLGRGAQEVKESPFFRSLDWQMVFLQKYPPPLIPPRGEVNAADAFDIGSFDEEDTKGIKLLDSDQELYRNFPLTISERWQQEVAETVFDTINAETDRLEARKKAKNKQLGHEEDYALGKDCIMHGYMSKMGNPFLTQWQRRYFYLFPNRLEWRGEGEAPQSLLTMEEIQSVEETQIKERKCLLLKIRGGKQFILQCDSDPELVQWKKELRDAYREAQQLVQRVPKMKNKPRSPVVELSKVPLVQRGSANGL
How it was run: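 GRK2 at 1 nM preincubated 30 min with compound, then reacted 90 min at room temperature with 7 μM ATP and 50 nM ULight-TopoIIα in HEPES/MgCl2/DTT buffer. Phosphorylation detected by TR-FRET after Eu anti-TopoIIα and EDTA addition, 60 min.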

[2] = target: T1, GRK2; assay: ADPGlo GRK2 Inhibition Assay (Example 8); type: biochemical; details: 7.5 nM GRK2, 10 μM ATP, ADP-Glo; read-out: GRK2 IC50 (nM) (Example 8)
How it was run: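 GRK2 (15 nM 2× enzyme solution) was preincubated 15 min with compound, then reacted 180 min at room temperature with 2× mix of 20 μM ATP plus GRKtide in HEPES pH 7.5, MgCl2, Tween-20, DTT. ADP was detected by ADP-Glo luminescence. Percent inhibition was normalised to enzyme and no-enzyme controls, with dose-response curves from threefold dilutions starting at 100 μM.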

[3] = test system: PAXF1657 control empty vector cell line; assay: 7-day proliferation assay, PAXF1657 control empty vector cell line (Example 9); type: cell-based; details: 168 h; 7-day compound treatment, CellTiter-Glo
How it was run: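 Isogenic PAXF1657 pairs differing in GRK2 level (stable cDNA overexpression or CRISPR knockout, each with matched control) are seeded and allowed to attach overnight. Inhibitors span 30 μM-0.0002 μM in 0.3% DMSO for 3 plus 4 days at 37° C, 5% CO2, with a medium change between.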

[4] = test system: PAXF1657 cell line stably overexpressing GRK2; assay: 7-day proliferation assay, PAXF1657 stably overexpressing GRK2 (Example 9); type: cell-based; details: for GI50: 168 h, 7-day compound treatment, CellTiter-Glo; for Ratio GRK2 overexpressing cells/Empty vector cells: GI50 in GRK2 overexpressing PAXF1657 over GI50 in empty vector PAXF1657
Description: In order to identify compounds specific for GRK2, we generated two isogenic cell line pairs of the pancreatic cancer cell line PAXF1657, a pair of cells stably overexpressing GRK2 cDNA or the control empty vector and a cell line pair of PAXF1657 GRK2 knockout clonal cells versus non-targeting control clonal cells.
Proliferation Assay: Cellular anti-proliferative activity of compounds was assessed by using the pancreatic cancer cell line, PAXF1657, stably overexpressing GRK2 cDNA or the control empty vector, as well as the parental urinary bladder cancer cell line, 5637. In addition, we also took advantage of GRK2 knockout cell lines that were generated via CRISPR. Cell lines were seeded into tissue culture treated, white-walled, 96-well plates at a density of 500 cells/well in RPMI1640 media supplemented with 10% H.I. FBS and penicillin/streptomycin. Plates were incubated overnight at 37° C., 5% CO2 to allow cells to adhere to the wells. GRK2 inhibitors were added to the cells using a 10-point dilution series with a final concentration ranging from 30 μM-0.0002 μM in 0.3% DMSO. At the time of compound addition, a set of plates, that were not treated with compounds, were collected and cell viability was measured using CellTiter-Glo (Promega). CellTiter-Glo reagent was added to the designed plates and luminescence was measuring using a Biotek Synergy plate reader. The compound treated cells were incubated for 3 days at 37° C., 5% CO2. The media was then aspirated from each well and replaced with fresh media containing GRK2 inhibitors. The compound treated cells were then incubated for an additional 4 days at 37° C., 5% CO2. Cell viability was assessed and at end of the 7-day compound treatment by CellTiterGlo.

Compound | IC50 [1] [nM] | IC50 [2] [nM] | GI50 [3] [µM] | GI50 [4] [µM] | Ratio GRK2 overexpressing cells/Empty vector cells [4]
COc1cccc(OC)c1CNC(=O)c1cccc(NCc2nnc(-c3ccncn3)n2C)c1 [compound 6] | 19 | 44 | 2.08 | 12.5 | 6.01
Cn1c(CNc2cccc(C(=O)NCc3cccc4c3OCC4)c2)nnc1-c1ccncn1 [compound 1, N-((2,3-dihydrobenzofuran-7-yl)methyl)-3-(((4-methyl-5-(pyrimidin-4-yl)-4H-1,2,4-triazol-3-yl)methyl)amino)benzamide] | 4.7 | 27 | 1.97 | 24.3 | 12.34
Cn1c(CNc2cccc(C(=O)NCc3cccc(F)c3)c2)nnc1-c1ccncn1 [compound 2] | 56 | 49 | 1.79 | 20.5 | 11.46
CCOc1ccccc1CNC(=O)c1cccc(NCc2nnc(-c3ccncn3)n2C)c1 [compound 7] | 33 | 30 | 3.32 | 14.2 | 4.29
